Source: patent US10967078B2, “Radiolabelled mGluR2 PET ligands” (Janssen Pharmaceutica NV, priority 2014, dated 2021)

Target: T1, mGluR2 (Mus musculus, UniProt Q14BI2)
T1 construct: horizontal sections of mGluR2 KO and WT mouse brain and of normal female Wistar rat brain; from tissue; host or cells: mouse brain sections (WT and mGluR2 KO), 20 µm
Assay: In vitro autoradiography binding on mGluR2 KO and WT mouse brain sections
Method: In vitro autoradiography studies were performed on horizontal sections of mGluR2 KO and WT mouse brain and of normal female Wistar rat brain (20 μm). The sections were preincubated in 50 mM Tris-HCl (MgCl2 2 mM, CaCl2 2 mM; pH 7.0) for 10 min (two times) at room temperature and dried. Next, the brain sections were incubated with tracer [^11C]-2, [^11C]-5, [^11C]-4, [^11C]-1 or [^18F]-3 diluted in the same Tris-HCl buffer as used for the preincubation additionally containing 0.1% BSA or with this tracer solution in the presence of 10 μM Co. No. 2 or Co. No. 1. The mouse brain sections were incubated with 17 kBq of carbon-11 labeled tracer and 1.7 kBq of fluorine-18 labeled tracer. For the rat brain sections this was 44 kBq of carbon-11 labeled tracer and 0.44 kBq of fluorine-18 labeled tracer. After 30 min of incubation, the brain sections were washed three times for 5 min in ice-cold Tris-HCl 50 mM ((MgCl2 2 mM, CaCl2 2 mM; pH 7.0+0.1% BSA buffer). After a quick dip in purified ice-cold water, the slides were dried. Autoradiograms were obtained by exposing the slides overnight to a high-performance phosphor storage screen (super-resolution screen; Perkin Elmer, Waltham, USA). The screens were read using a Cyclone Plus system (Perkin Elmer) and analysed using Optiquant software (Perkin Elmer). The radioactivity concentration in the autoradiograms was expressed in digital light units (DLU)/mm^2.
To obtain additional information on the specificity of the tracer binding to mGluR2, in vitro autoradiography binding studies were performed on mGluR2 KO and WT mouse brain sections and on normal rat brain sections in presence or absence of a high concentration of mGluR2 NAM compounds (Co. No. 1 or Co. No. 2).

[1] = WT mouse cortex, block with 10 μM Co. No. 1
[2] = WT mouse striatum, block with 10 μM Co. No. 1

T1 sequence (Q14BI2 19-872): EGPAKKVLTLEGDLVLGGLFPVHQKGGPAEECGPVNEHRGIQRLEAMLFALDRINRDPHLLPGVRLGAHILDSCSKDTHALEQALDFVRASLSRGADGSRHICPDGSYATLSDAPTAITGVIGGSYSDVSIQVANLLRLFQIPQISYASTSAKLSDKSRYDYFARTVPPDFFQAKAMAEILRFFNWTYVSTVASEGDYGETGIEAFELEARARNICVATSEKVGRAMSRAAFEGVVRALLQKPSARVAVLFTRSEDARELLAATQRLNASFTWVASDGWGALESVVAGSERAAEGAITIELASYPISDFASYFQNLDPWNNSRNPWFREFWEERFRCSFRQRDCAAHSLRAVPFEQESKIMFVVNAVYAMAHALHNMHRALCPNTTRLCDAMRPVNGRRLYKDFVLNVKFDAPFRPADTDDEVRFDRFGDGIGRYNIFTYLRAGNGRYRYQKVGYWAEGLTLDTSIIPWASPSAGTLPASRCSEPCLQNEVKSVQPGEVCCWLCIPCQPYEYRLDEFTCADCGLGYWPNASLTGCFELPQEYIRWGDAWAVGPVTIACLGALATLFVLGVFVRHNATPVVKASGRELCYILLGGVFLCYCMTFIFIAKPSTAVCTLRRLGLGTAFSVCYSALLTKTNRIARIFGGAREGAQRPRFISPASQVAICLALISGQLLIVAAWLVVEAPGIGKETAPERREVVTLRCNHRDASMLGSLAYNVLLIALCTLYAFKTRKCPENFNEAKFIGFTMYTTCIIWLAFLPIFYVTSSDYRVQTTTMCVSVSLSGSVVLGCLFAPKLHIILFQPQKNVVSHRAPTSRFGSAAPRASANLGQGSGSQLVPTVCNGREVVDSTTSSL

**Q.** With `C[C@H]1CN(c2ccc(C(F)(F)F)cc2)C(=O)c2c(-c3ccnc(N[11CH3])c3)cnn21` [[^11C]-2] as the molecule, how does the “Cortex WT (TB)/cortex WT (block Co. No. 1)” value [1] read?
**A.** Its value is roughly 6.7.

**Q.** What about the “spec binding, cortex WT” value [1] of the same molecule?
**A.** The value was “(~85% spec”.

**Q.** What about the “Striatum WT (TB)/striatum WT (block Co. No. 1)” value [2] of the same molecule?
**A.** The value was roughly 8.3.

**Q.** And the “spec binding, striatum WT” value [2]?
**A.** Its value is “(~88% spec”.

**Q.** What about the “difference in tracer binding to WT and mGluR2 KO mouse brain sections” value (in words) of the same molecule?
**A.** The value was “significant difference”.

**Q.** And the “Cortex WT (TB)/Cortex KO (TB)” value (total binding ratio, WT versus mGluR2 KO mouse brain sections, cortex)?
**A.** The value was roughly 8.1.

**Q.** And the “Striatum WT (TB)/Striatum KO (TB)” value (total binding ratio, WT versus mGluR2 KO mouse brain sections, striatum)?
**A.** The value was roughly 4.8.
